Test results reported in patent US6569881B1, “Substituted benzimidazole, the production thereof and the use thereof as means against parasitic protozoa” (Bayer Aktiengesellschaft, priority 1999, dated 2003).

What was measured:
Type in all cases: in vivo, chicken chicks
Eimeria maxima = assay: Cage experiments coccidiosis/chicks, Eimeria maxima part of the mixed infection; settings: for Efficacy against Eimeria maxima (grade): second symbol of cell; for Efficacy against Eimeria maxima (grade): key: 2 = complete action; 1 = weak action; 0 = inactive; D = death
Experimental: (§1) The efficacy of the compounds according to the invention can be confirmed, for example, in cage experiments using the following experimental arrangement, in which the animals are treated with the respective individual components and with the mixtures of the individual components.
(§2) An active compound-containing feed is prepared in such a way that the required amount of active compound is thoroughly mixed with a nutritionally balanced animal feed, e.g. with the chick feed indicated below.
(§3) 8 to 12 day-old male chicken chicks raised under coccidea-free conditions (e.g. LSL Brinkschulte/Senden) receive the compounds according to the invention (test substances) from 3 days before (day -3) the infection (=a.i.) until 8 (9) days after the infection (=p.i.) with the feed in the concentration indicated in ppm. Three animals are kept in each cage. Per dose, one to a number of groups of this type are employed. Infection is carried out by means of a stomach tube directly into the crop using approximately 100,000 sporulated oocysts of Eimeria acervulina and with in each case approximately 30,000 oocysts of E. maxima and 40,000 sporulated oocysts of E. tenella. These are highly virulent strains. The exact infectious dose is adjusted such that if possible one of three experimentally infected untreated chicks dies due to infection. For the assessment of the efficacy, the following criteria are taken into consideration: weight increase from the start of the experiment to the end of the experiment, death rate due to infection, macroscopic assessment of the faeces with respect to diarrhoea and excretion of blood on days 5 and 7 p.i. (grade 0 to 6), macroscopic grade of the intestinal mucous membrane, in particular of the cecums (grade 0 to 6) and the oocyst excretion and also the proportion (in %) of the oocysts sporulating within 24 hours. The number of oocysts in the faeces was determined with the aid of the McMaster counting chamber (see Engelbrecht and coworkers “Parasitologische Arbeitsmethoden in Medizin und Veterinärmedizin, [Parasitological working methods in medicine and veterinary medicine] Akademie-Verlag, Berlin (1965)). The individual findings are related to the untreated noninfected control groups and an overall grade is calculated (cf. A. Haberkorn (1986), pp. 263 to 270 in Research in Avian Coccidiosis ed L. R. McDougald, L. P. Joyner, P. L. Long Proceedings of the Georgia Coccidiosis Conference Nov, 18-20, 1985 Athens/Ga. USA).
(§4) In the columns “dropping scores”, “lesion score” and “oocyst control”, individual details of the action are given.

Eimeria tenella = assay: Cage experiments coccidiosis/chicks, Eimeria tenella part of the mixed infection; settings: for Efficacy against Eimeria tenella (grade): third symbol of cell; for Efficacy against Eimeria tenella (grade): key: 2 = complete action; 1 = weak action; 0 = inactive; D = death
Experimental: as §1, §2, §3, §4

Eimeria acervulina = assay: Cage experiments coccidiosis/chicks, Eimeria acervulina part of the mixed infection; settings: for Efficacy against Eimeria acervulina (grade): first symbol of cell; for Efficacy against Eimeria acervulina (grade): key: 2 = complete action; 1 = weak action; 0 = inactive; D = death
Experimental: as §1, §2, §3, §4

[1] = system: Eimeria acervulina, Eimeria maxima and Eimeria tenella; assay: Cage experiments coccidiosis/chicks, mixed experimental infection
Experimental: as §1, §2, §3
In the column “ppm”, the concentration of the active compound employed in the feed is indicated in ppm.
In the column “mortality”, the percentage of the animals which have died is indicated under % and the number of the animals which have died/animals employed in the experiment is indicated under n.
In the column “weight % of not inf. control”, the ratio of the weight of the treated animals to the weight of the noninfected control group is indicated.
as §4
In the column “% efficacy”, the overall rating is assessed; 0% means no action, 100% means complete action.

[2] = 0 ppm in feed (so in the source)
[3] = 0 ppm in feed (so in the source), grade 0 to 6
[4] = 2.5 ppm in feed, listed as Ex. 13
[5] = 5 ppm in feed, listed as Ex. 13
[6] = 10 ppm in feed, listed as Ex. 13

Cc1oc(=O)oc1Cn1c(C(F)(F)F)nc2c(Cl)cc(C(F)(F)F)cc21 [Example 11]
oocyst in % of inf. control max. (Eimeria maxima; [2]): 0% | oocyst in % of inf. control max. (Eimeria maxima; 5 ppm): >100 % of inf. control | oocyst in % of inf. control max. (Eimeria maxima; 5 ppm in feed): 0% | oocyst in % of inf. control max. (Eimeria maxima; 7.5 ppm): >100 % of inf. control | oocyst in % of inf. control max. (Eimeria maxima; 10 ppm): 0 % of inf. control | oocyst in % of inf. control max. (Eimeria maxima; 25 ppm in feed): 0% | Efficacy against Eimeria maxima (grade) (Eimeria maxima; Dose 5 ppm): 0 | Efficacy against Eimeria maxima (grade) (Eimeria maxima; Dose 10 ppm): 1 | Efficacy against Eimeria maxima (grade) (Eimeria maxima; Dose 25 ppm): 2 | oocyst in % of inf. control ten. (Eimeria tenella; [2]): 27% | oocyst in % of inf. control ten. (Eimeria tenella; 5 ppm): 91 % of inf. control | oocyst in % of inf. control ten. (Eimeria tenella; 5 ppm in feed): >100% | oocyst in % of inf. control ten. (Eimeria tenella; 7.5 ppm): >100 % of inf. control | oocyst in % of inf. control ten. (Eimeria tenella; 10 ppm): 44 % of inf. control | oocyst in % of inf. control ten. (Eimeria tenella; 25 ppm in feed): 0% | Efficacy against Eimeria tenella (grade) (Eimeria tenella; Dose 5 ppm): 0 | Efficacy against Eimeria tenella (grade) (Eimeria tenella; Dose 10 ppm): 1 | Efficacy against Eimeria tenella (grade) (Eimeria tenella; Dose 25 ppm): 2 | oocyst in % of inf. control ac. (Eimeria acervulina; [2]): 38% | oocyst in % of inf. control ac. (Eimeria acervulina; 5 ppm): 19 % of inf. control | oocyst in % of inf. control ac. (Eimeria acervulina; 5 ppm in feed): >100% | oocyst in % of inf. control ac. (Eimeria acervulina; 7.5 ppm): 22 % of inf. control | oocyst in % of inf. control ac. (Eimeria acervulina; 10 ppm): 91 % of inf. control | oocyst in % of inf. control ac. (Eimeria acervulina; 25 ppm in feed): 0% | Efficacy against Eimeria acervulina (grade) (Eimeria acervulina; Dose 5 ppm): 0 | Efficacy against Eimeria acervulina (grade) (Eimeria acervulina; Dose 10 ppm): 1 | Efficacy against Eimeria acervulina (grade) (Eimeria acervulina; Dose 25 ppm): 2 | % efficacy tot. [1, 2]: 39% | mortality % [1, 2]: 0% | mortality n (died/employed) [1, 2]: 0/3 | oocyst in % of inf. control tot. [1, 2]: 34% | weight % of not inf. control [1, 2]: 52% | dropping scores [1, 3]: 6 | lesion score [1, 3]: 6 | % efficay tot. ([1]; 5 ppm): 11% | dropping scores ([1]; 5 ppm): 6 | lesion score ([1]; 5 ppm): 6 | mortality % ([1]; 5 ppm): 33% | mortality n ([1]; 5 ppm): 1/3 | oocyst in % of inf. control tot. ([1]; 5 ppm): 47 % of inf. control | weight % of not inf. control ([1]; 5 ppm): 42 % of not inf. control | % efficacy tot. ([1]; 5 ppm in feed): 0% | mortality % ([1]; 5 ppm in feed): 66% | mortality n (died/employed) ([1]; 5 ppm in feed): 2/3 | oocyst in % of inf. control tot. ([1]; 5 ppm in feed): >100% | weight % of not inf. control ([1]; 5 ppm in feed): 17% | dropping scores ([1]; 5 ppm in feed, grade 0 to 6): 6 | lesion score ([1]; 5 ppm in feed, grade 0 to 6): 6 | % efficay tot. ([1]; 7.5 ppm): 7% | dropping scores ([1]; 7.5 ppm): 6 | lesion score ([1]; 7.5 ppm): 6 | mortality % ([1]; 7.5 ppm): 0% | mortality n ([1]; 7.5 ppm): 0/3 | oocyst in % of inf. control tot. ([1]; 7.5 ppm): 75 % of inf. control | weight % of not inf. control ([1]; 7.5 ppm): 58 % of not inf. control | % efficay tot. ([1]; 10 ppm): 22% | dropping scores ([1]; 10 ppm): 6 | lesion score ([1]; 10 ppm): 6 | mortality % ([1]; 10 ppm): 33% | mortality n ([1]; 10 ppm): 1/3 | oocyst in % of inf. control tot. ([1]; 10 ppm): 72 % of inf. control | weight % of not inf. control ([1]; 10 ppm): 41 % of not inf. control | % efficacy tot. ([1]; 25 ppm in feed): 79% | mortality % ([1]; 25 ppm in feed): 0% | mortality n (died/employed) ([1]; 25 ppm in feed): 0/3 | oocyst in % of inf. control tot. ([1]; 25 ppm in feed): 0% | weight % of not inf. control ([1]; 25 ppm in feed): 67% | dropping scores ([1]; 25 ppm in feed, grade 0 to 6): 2 | lesion score ([1]; 25 ppm in feed, grade 0 to 6): 0

Cc1oc(=O)oc1Cn1c(C(F)(F)F)nc2cc(C(F)(F)F)c(C(F)(F)F)cc21 [Example 13]
oocyst in % of inf. control max. (Eimeria maxima; 2.5 ppm in feed): 0% | oocyst in % of inf. control max. (Eimeria maxima; [4]): 55% | oocyst in % of inf. control max. (Eimeria maxima; 5 ppm in feed): 0% | oocyst in % of inf. control max. (Eimeria maxima; [5]): 36% | oocyst in % of inf. control max. (Eimeria maxima; 7.5 ppm in feed): 0% | oocyst in % of inf. control max. (Eimeria maxima; 10 ppm in feed): 0% | Efficacy against Eimeria maxima (grade) (Eimeria maxima; Dose 5 ppm): 1 | Efficacy against Eimeria maxima (grade) (Eimeria maxima; Dose 10 ppm): 2 | Efficacy against Eimeria maxima (grade) (Eimeria maxima; Dose 25 ppm): D D D | oocyst in % of inf. control ten. (Eimeria tenella; 2.5 ppm in feed): 27% | oocyst in % of inf. control ten. (Eimeria tenella; [4]): >100% | oocyst in % of inf. control ten. (Eimeria tenella; 5 ppm in feed): 3% | oocyst in % of inf. control ten. (Eimeria tenella; [5]): 27% | oocyst in % of inf. control ten. (Eimeria tenella; 7.5 ppm in feed): 0% | oocyst in % of inf. control ten. (Eimeria tenella; 10 ppm in feed): 0% | Efficacy against Eimeria tenella (grade) (Eimeria tenella; Dose 5 ppm): 1 | Efficacy against Eimeria tenella (grade) (Eimeria tenella; Dose 10 ppm): 2 | Efficacy against Eimeria tenella (grade) (Eimeria tenella; Dose 25 ppm): D D D | oocyst in % of inf. control ac. (Eimeria acervulina; 2.5 ppm in feed): 55% | oocyst in % of inf. control ac. (Eimeria acervulina; [4]): 33% | oocyst in % of inf. control ac. (Eimeria acervulina; 5 ppm in feed): 5% | oocyst in % of inf. control ac. (Eimeria acervulina; [5]): 25% | oocyst in % of inf. control ac. (Eimeria acervulina; 7.5 ppm in feed): 0% | oocyst in % of inf. control ac. (Eimeria acervulina; 10 ppm in feed): 0% | Efficacy against Eimeria acervulina (grade) (Eimeria acervulina; Dose 5 ppm): 2 | Efficacy against Eimeria acervulina (grade) (Eimeria acervulina; Dose 10 ppm): 2 | Efficacy against Eimeria acervulina (grade) (Eimeria acervulina; Dose 25 ppm): D D D | % efficacy tot. ([1]; 2.5 ppm in feed): 15% | mortality % ([1]; 2.5 ppm in feed): 33% | mortality n (died/employed) ([1]; 2.5 ppm in feed): 1/3 | oocyst in % of inf. control tot. ([1]; 2.5 ppm in feed): 41% | weight % of not inf. control ([1]; 2.5 ppm in feed): 61% | dropping scores ([1]; 2.5 ppm in feed, grade 0 to 6): 6 | lesion score ([1]; 2.5 ppm in feed, grade 0 to 6): 6 | % efficacy tot. [1, 4]: 16% | mortality % [1, 4]: 0% | mortality n (died/employed) [1, 4]: 0/3 | oocyst in % of inf. control tot. [1, 4]: 57% | % efficacy tot. ([1]; 5 ppm in feed): 50% | mortality % ([1]; 5 ppm in feed): 33% | mortality n (died/employed) ([1]; 5 ppm in feed): 1/3 | oocyst in % of inf. control tot. ([1]; 5 ppm in feed): 4% | weight % of not inf. control ([1]; 5 ppm in feed): 74% | dropping scores ([1]; 5 ppm in feed, grade 0 to 6): 6 | lesion score ([1]; 5 ppm in feed, grade 0 to 6): 6 | lesion score ([1]; 5 ppm in feed, grade 0 to 6, listed as Ex. 13): 4.6 | % efficacy tot. [1, 5]: 32% | mortality % [1, 5]: 0% | mortality n (died/employed) [1, 5]: 0/3 | oocyst in % of inf. control tot. [1, 5]: 26% | % efficacy tot. ([1]; 7.5 ppm in feed): 74% | mortality % ([1]; 7.5 ppm in feed): 0% | mortality n (died/employed) ([1]; 7.5 ppm in feed): 0/3 | oocyst in % of inf. control tot. ([1]; 7.5 ppm in feed): 0% | weight % of not inf. control ([1]; 7.5 ppm in feed): 81% | dropping scores ([1]; 7.5 ppm in feed, grade 0 to 6): 6 | lesion score ([1]; 7.5 ppm in feed, grade 0 to 6): 5.3 | % efficacy tot. ([1]; 10 ppm in feed): 73% | mortality % ([1]; 10 ppm in feed): 0% | mortality n (died/employed) ([1]; 10 ppm in feed): 0/3 | oocyst in % of inf. control tot. ([1]; 10 ppm in feed): 0% | weight % of not inf. control ([1]; 10 ppm in feed): 83% | dropping scores ([1]; 10 ppm in feed, grade 0 to 6): 6 | lesion score ([1]; 10 ppm in feed, grade 0 to 6): 4.3 | lesion score ([1]; 10 ppm in feed, grade 0 to 6, listed as Ex. 13): 5.3 | % efficacy tot. [1, 6]: 78% | weight % of not inf. control [1, 6]: 76%
